Article PMC12040169 (PLOS Biology, 2025)

Experiment: in vitro
Details: human, hela cells, % viability

SMILES: O=C(O)c1cc2ccccc2[nH]1 [CBK015732]
- viability at 28.5 h, 10 µM: 100%

SMILES: O=C(NC(c1ccc(-c2ccccc2)cc1)c1cnccn1)C1CCN(CCc2ccc(F)cc2)CC1 (stereo not shown) [CBK147981]
- viability at 28.5 h, 10 µM: 92.6%

SMILES: Cc1cc(C)n(C(C)C(=O)N2CCC(Nc3cccnc3)CC2)n1 (stereo not shown) [CBK305917]
- viability at 28.5 h, 10 µM: 94.2%

SMILES: O=c1n(-c2ccc3c(c2)OCO3)ccn1S(=O)(=O)c1ccc2c(c1)OCCO2 [CBK106636]
- viability at 28.5 h, 10 µM: 87.8%

SMILES: Cc1ccccc1N1CCN(C(=O)c2nn[nH]c2Nc2ccccc2F)CC1 [CBK288032]
- viability at 28.5 h, 10 µM: 101%

SMILES: O=C(O)c1ccc(-n2ncc3ccccc3c2=O)cc1 [CBK288229]
- viability at 28.5 h, 10 µM: 111%

SMILES: COc1ccc(OC)c(C(O)c2nc3ccccc3n2C(C)C)c1 (stereo not shown) [CBK263474]
- viability at 28.5 h, 10 µM: 92.7%

SMILES: CC(=O)c1ccc(-c2ccc(C(=O)NCC3COc4ccccc4O3)c(NCc3cccnc3)n2)s1 (stereo not shown) [CBK076608]
- viability at 28.5 h, 10 µM: 97.9%

SMILES: CN1CCN(C(=O)C2CCN(CCCc3ccccc3)CC2)CC1 [CBK264326G]
- viability at 28.5 h, 10 µM: 96%

SMILES: C=CCn1c(-c2sc(NC(=O)c3cc4ccccc4s3)nc2C)n[nH]c1=S [CBK295303]
- viability at 28.5 h, 10 µM: 94.8%

SMILES: COc1cc2nc(S)n(CCc3ccc(S(N)(=O)=O)cc3)c(=O)c2cc1OC [CBK268457]
- viability at 28.5 h, 10 µM: 84.4%

SMILES: CCCCCNC(=O)N1CCN(CC(=O)OCC)CC1 [CBK044786]
- viability at 28.5 h, 10 µM: 96.6%

SMILES: CCc1nc2ccc(C(=O)Nc3ccc(NC(C)=O)cc3)cn2c1N(C)C(=O)Cc1ccccc1 [CBK146855]
- viability at 28.5 h, 10 µM: 95.3%

SMILES: CC(C)[C@@H](N)C(=O)N1CC[C@@H]2NC(=O)[C@@H](Cc3ccccc3)NC(=O)C3(C/C=C/C[C@H]2C1)CCOCC3 [CBK292201]
- viability at 28.5 h, 10 µM: 112%

SMILES: CCNC(=O)N1CCC[C@@H](O)[C@H](NC(=O)c2ccc(OC)cc2)C1 [CBK289066]
- viability at 28.5 h, 10 µM: 88.2%

SMILES: c1ccc(OCCN2CCCN(c3nccc(OCC4COc5ccccc5O4)n3)CC2)cc1 (stereo not shown) [CBK083980]
- viability at 28.5 h, 10 µM: 94%

SMILES: CC1CCCN(Cc2c(C3CCNCC3)[nH]c3ncccc23)C1C (stereo not shown) [CBK285084]
- viability at 28.5 h, 10 µM: 89.1%

SMILES: O=C(c1csc(-c2ccccc2)n1)N1CCn2nc(C3CC3)cc2C1 [CBK304676]
- viability at 28.5 h, 10 µM: 95.9%

SMILES: Cc1ccc(N2C(=O)c3ccccc3NC23C(=O)N(C)c2ccc(Br)cc23)cc1 (stereo not shown) [CBK103752]
- viability at 28.5 h, 10 µM: 85.2%

SMILES: Cc1cccc(CN(CCN)C(=O)Nc2ccc(C(C)(C)C)cc2)n1 [CBK046230C]
- viability at 28.5 h, 10 µM: 96.4%

SMILES: COc1cc2c(cc1NC(=O)C/C(C)=N/NC(=O)c1ccoc1C)oc1ccccc12 [CBK262953]
- viability at 28.5 h, 10 µM: 112%

SMILES: O=C(Cc1ccn[nH]1)N1CC(O)CC1c1cc(F)ccc1F (stereo not shown) [CBK304872]
- viability at 28.5 h, 10 µM: 92.3%

SMILES: COc1ccc2c(c1)c1nc(C)sc1n2CCN1CCCCC1 [CBK269909C]
- viability at 28.5 h, 10 µM: 93.3%

SMILES: CS(=O)(=O)Nc1nccnc1OC1CCN(CCCn2c(=O)[nH]c3ccccc32)CC1 [CBK084277]
- viability at 28.5 h, 10 µM: 91.8%

SMILES: COc1ccc(CC(=O)N(C)Cc2nnc3ccccn23)cc1 [CBK304935]
- viability at 28.5 h, 10 µM: 87.8%

SMILES: CC(C)Oc1ncc(C(=O)N(CCC#N)Cc2ccco2)cc1Cl [CBK304908]
- viability at 28.5 h, 10 µM: 91.6%

SMILES: CC(C)CNC(=O)N(CCc1ccccc1)Cc1ccccc1 [CBK155339]
- viability at 28.5 h, 10 µM: 93.8%

SMILES: CCCC(=O)N1CCC(Cc2ccc(-c3cccc(C)c3)cc2)(C(=O)NC)CC1 [CBK285786]
- viability at 28.5 h, 10 µM: 104%

SMILES: COc1ccc(-c2cc(-c3nnc(S)n3-c3ccccc3Cl)[nH]n2)cc1 [CBK265880]
- viability at 28.5 h, 10 µM: 100%

SMILES: Cc1nn(C)cc1-c1cncn1C(C)Cc1c(C)nn(C)c1C (stereo not shown) [CBK281786]
- viability at 28.5 h, 10 µM: 115%

SMILES: Nc1ncc(-c2ccco2)nc1NCc1ccco1 [CBK063682]
- viability at 28.5 h, 10 µM: 91.8%

SMILES: O=C(Cn1nnc2ccccc21)c1ccc2c(c1)CCN2S(=O)(=O)c1ccccc1 [CBK286464]
- viability at 28.5 h, 10 µM: 101%

SMILES: O=S(=O)(c1ccc(C(F)(F)F)cc1Cl)N1CCCN(Cc2cccc3c2OCO3)CC1 [CBK063067]
- viability at 28.5 h, 10 µM: 98.6%

SMILES: CC(C)n1cc(CN2CCNC(=O)C2c2ccccc2C(F)(F)F)nn1 (stereo not shown) [CBK304732]
- viability at 28.5 h, 10 µM: 91.6%
